We go through two molecules from patent publication US6166091A, “2,3,4-trihydroxycyclopentanone” (Takara Shuzo Co., Ltd., priority 1997, dated 2000).

SMILES strings stand for the structures.

Data set [1] in a line: storage of aqueous cyclopentenone solution, conversion to hydroxycyclopentanone. It counts as physicochemical. The following applies: water; aqueous solution stored at 4° C. for 30 days; read-out: cyclopentenone changed to hydroxycyclopentanone in aqueous solution.
A further data set concerns mice. The experiment in a line: toxicity by oral administration to mice. It counts as in vivo. The following applies: oral administration of 100 mg/kg to mice.
Data set [2] in a line: standing in aqueous solution, TLC detection of cyclopentenone formed. The note with it: 4 mM in water, 16 hours at 4° C., 37° C. or 45° C. It counts as physicochemical. As to the method:
Hydroxycyclopentanone obtained in Example 2-(2) was dissolved in water to make the concentration 4 mM followed by allowing to stand for 16 hours at 4° C., 37° C. or 45° C. One μl of each of the samples was spotted on a silica gel 60 sheet F254 (manufactured by Merck), developed by the upper layer of a mixture of butyl acetate, acetic acid and water (3:2:2) and detected by means of an orcinol-sulfuric acid method. Thus, 400 mg of orcinol monohydrate (manufactured by Nacalai Tesque; 257-30) was dissolved in 22.8 ml of sulfuric acid, water was added to make 200 ml, the solution was sprayed on the thin layer after the development and heated at 120° C. for 1-2 minutes and the resulting spots were observed.

For the molecule `O=C1C=CC(O)C1O` (stereo not drawn) [cyclopentenone, 4,5-dihydroxy-2-cyclopenten-1-one], the degraded at 720 h in data set [1] was roughly 30%.

On to `O=C1CC(O)C(O)C1O` (stereo not drawn) [hydroxycyclopentanone, 2,3,4-trihydroxycyclopentanone], for which, in the data set with mice, the toxicity result was “no toxicity was noted”. Besides, the “conversion to cyclopentenone in aqueous solution (TLC spot)” value in data set [2] was “a spot for cyclopentenone was noted in all of the samples and the higher the temperature for allowing to stand, the stronger the color of the spot for cyclopentenone”.
